{"source": "patent US6696432B1", "about": "“Combination of dehydroepiandrosterone and aromatase inhibitors and use of this combination to produce a medicament for treating relative and absolute androgen deficiency in men” (Schering Aktiengesellschaft, priority 1996, dated 2004)", "key": {"patients with BPH [1]": {"system": "patients with BPH", "assay": "24-week four-way study of atamestane versus placebo, testosterone serum concentration", "type": "in vivo, human", "details": "for Testosterone Serum Concentration Δ % (median ± SD): 24 weeks"}, "patients with BPH [2]": {"system": "patients with BPH", "assay": "48-week atamestane treatment (400 mg vs placebo), testosterone serum concentration", "type": "in vivo, human", "details": "daily dose 400 mg", "text": "(§1) Tables 3 and 4 show the results after a 48-week treatment."}, "patients with BPH [3]": {"system": "patients with BPH", "assay": "48-week atamestane treatment (100 mg, 300 mg vs placebo), testosterone serum concentration", "type": "in vivo, human", "details": "for Testosterone Serum Concentration Δ % (X ± SD): 48 weeks", "text": "as §1"}, "[4]": {"system": "men with BPH (average age above 60 years)", "assay": "Testosterone/estradiol (T/E2) ratio before and after atamestane, 4 clinical studies, 7 treatment groups", "type": "in vivo, human", "description": "Gradual lowering of the estrogen concentration induces a counterregulatory stimulation of androgen synthesis. To a certain extent, there is an endogenic testosterone substitution, by which the androgen/estrogen balance is again brought back to the “youthful” range. This substantiates the results of the longer-term treatment of older men (average age above 60 years) with the selective aromatase inhibitor atamestane.\n(§2) In several clinical studies, atamestane was administered at varying dosages and over periods of up to 48 weeks to men in this age group to treat an existing BPH. […] Table 5 provides the testosterone/estrogen ratio before and after the administration of atamestane for patient populations from 4 studies and 7 treatment groups.\nAssuming that the testosterone dominance that was reduced by 30-50% in the age group of patients over 60 years compared to the younger years (relative androgen deficiency) caused the symptoms of “male menopause,” the goal is thus to restore the original “balance of power” between androgens and estrogens by administering a preferably selective aromatase inhibitor by stimulating endogenic testosterone substitution without the necessity of supplying androgens exogenically. Based on the understanding that the ratio prevailing in age is the result of a 30-50% reduction compared to the youthful values, i.e., is always 50-70% of the previous value, the corresponding “youthful” previous value can be calculated for each individual patient. A patient with a testosterone/estradiol ratio of 230:1 must accordingly be adjusted to a new balance in the range between […] to 460:1, so that a preceding 30 or 50% reduction is compensated for."}, "patients with BPH [5]": {"system": "patients with BPH", "assay": "Longer-term clinical studies with atamestane in BPH patients, hormone levels", "type": "in vivo, human", "description": "as §2\nThe administration of atamestane consistently results in a resetting of the testosterone/estradiol balance in favor of the androgenic component. This action was detectable over the entire observation period up to a maximum of 48 weeks of treatment."}, "[6]": {"system": "patients with prostate cancer", "details": "pharmacological doses; cited from earlier work"}}, "data": [{"compound": "CC1=CC(=O)C=C2CC[C@@H]3[C@H](CC[C@]4(C)C(=O)CC[C@@H]34)[C@@]12C", "note": "[atamestane, 1-Methyl-androsta-1,4-diene-3,17-dione]", "values": [{"measurement": "Testosterone Serum Concentration Δ % (median ± SD)", "setting": "patients with BPH [1]; daily dose 100 mg", "result": "29.57 ± 34.70", "unit": "%"}, {"measurement": "Testosterone Serum Concentration After 24 Weeks", "setting": "patients with BPH [1]; daily dose 100 mg, previous value 4.41", "result": 5.57, "unit": "ng/mL"}, {"measurement": "Testosterone Serum Concentration Δ % (median ± SD)", "setting": "patients with BPH [1]; daily dose 300 mg", "result": "40.88 ± 156.12", "unit": "%"}, {"measurement": "Testosterone Serum Concentration After 24 Weeks", "setting": "patients with BPH [1]; daily dose 300 mg, previous value 4.50", "result": 6.15, "unit": "ng/mL"}, {"measurement": "Testosterone Serum Concentration Δ % (median ± SD)", "setting": "patients with BPH [1]; daily dose 600 mg", "result": "41.19 ± 37.62", "unit": "%"}, {"measurement": "Testosterone Serum Concentration After 24 Weeks", "setting": "patients with BPH [1]; daily dose 600 mg, previous value 3.78", "result": 5.40, "unit": "ng/mL"}, {"measurement": "Testosterone Serum Concentration Δ % (X ± SD)", "setting": "patients with BPH [2]; 48 weeks", "result": "42.9 ± 53.5", "unit": "%"}, {"measurement": "Testosterone Serum Concentration After 48 Weeks", "setting": "patients with BPH [2]; previous value 4.2", "result": 5.4, "unit": "ng/mL"}, {"measurement": "Testosterone Serum Concentration Δ % (X ± SD)", "setting": "patients with BPH [3]; daily dose 100 mg", "result": "19.0 ± 36.8", "unit": "%"}, {"measurement": "Testosterone Serum Concentration After 48 Weeks", "setting": "patients with BPH [3]; daily dose 100 mg, previous value 5.1", "result": 5.9, "unit": "ng/mL"}, {"measurement": "Testosterone Serum Concentration Δ % (X ± SD)", "setting": "patients with BPH [3]; daily dose 300 mg", "result": "41.7 ± 46.4", "unit": "%"}, {"measurement": "Testosterone Serum Concentration After 48 Weeks", "setting": "patients with BPH [3]; daily dose 300 mg, previous value 4.7", "result": 6.6, "unit": "ng/mL"}, {"measurement": "T/E2 Ratio % Δ", "setting": "[4]; 100 mg, 24 weeks", "result": "+48%"}, {"measurement": "T/E2 Ratio % Δ", "setting": "[4]; 100 mg, 48 weeks", "result": "+41%"}, {"measurement": "T/E2 Ratio % Δ", "setting": "[4]; 200 mg t.i.d., 8 weeks", "result": "+46%"}, {"measurement": "T/E2 Ratio % Δ", "setting": "[4]; 300 mg, 24 weeks", "result": "+58%"}, {"measurement": "T/E2 Ratio % Δ", "setting": "[4]; 300 mg, 48 weeks", "result": "+46%"}, {"measurement": "T/E2 Ratio % Δ", "setting": "[4]; 400 mg, 48 weeks", "result": "+54%"}, {"measurement": "T/E2 Ratio % Δ", "setting": "[4]; 600 mg, 24 weeks", "result": "+61%"}, {"measurement": "achieved T/E2 versus calculated \"youthful\" target range", "setting": "[4]; daily dose of 100 mg", "result": "target range is generally readily met"}, {"measurement": "achieved T/E2 versus calculated \"youthful\" target range", "setting": "[4]; higher dosages (above 100 mg daily)", "result": "somewhat above the target range"}, {"measurement": "alteration of the testosterone/estradiol ratio", "setting": "[4]; varying dosages, periods of up to 48 weeks", "result": "significant alteration of the testosterone/estradiol ratio in favor of testosterone"}, {"measurement": "peripheral estrogen reduction", "setting": "patients with BPH [5]; daily doses of 100 mg-600 mg", "result": "equally intense"}, {"measurement": "testosterone concentration after longer-term treatment", "setting": "patients with BPH [5]; treatment lasting 24 to 48 weeks, patients with BPH", "result": "significant increase"}]}, {"compound": "CC/C(=C(/CC)c1ccc(O)cc1)c1ccc(O)cc1", "note": "[diethylstilbestrol]", "values": [{"measurement": "testosterone level in the serum", "setting": "[6]", "result": "castration level"}]}]}
